Test results reported in ChEMBL document CHEMBL4402510, “Caprazamycins: Promising lead structures acting on a novel antibacterial target MraY” (Eur J Med Chem, 2019).
Converted amounts (≈) assume the structure as drawn.

Tests used:
[1] = target: T1, Phospho-N-acetylmuramoyl-pentapeptide-transferase (Bacillus subtilis (strain 168), UniProt Q03521); assay: Inhibition of MraY in Bacillus subtilis
T1 sequence (Q03521 whole entry): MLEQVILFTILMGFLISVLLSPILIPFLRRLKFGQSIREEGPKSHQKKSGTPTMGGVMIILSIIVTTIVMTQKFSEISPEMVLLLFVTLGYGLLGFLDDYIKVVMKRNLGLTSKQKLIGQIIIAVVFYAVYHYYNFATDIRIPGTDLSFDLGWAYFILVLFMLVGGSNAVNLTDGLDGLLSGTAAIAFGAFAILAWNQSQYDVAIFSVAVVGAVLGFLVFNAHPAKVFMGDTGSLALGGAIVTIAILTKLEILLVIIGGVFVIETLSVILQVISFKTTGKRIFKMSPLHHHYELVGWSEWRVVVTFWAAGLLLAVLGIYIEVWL

[2] = target: T2, Phospho-N-acetylmuramoyl-pentapeptide-transferase (Aquifex aeolicus (strain VF5), UniProt O66465); assay: Inhibition of MraY in Aquifex aeolicus
T2 sequence (O66465 whole entry): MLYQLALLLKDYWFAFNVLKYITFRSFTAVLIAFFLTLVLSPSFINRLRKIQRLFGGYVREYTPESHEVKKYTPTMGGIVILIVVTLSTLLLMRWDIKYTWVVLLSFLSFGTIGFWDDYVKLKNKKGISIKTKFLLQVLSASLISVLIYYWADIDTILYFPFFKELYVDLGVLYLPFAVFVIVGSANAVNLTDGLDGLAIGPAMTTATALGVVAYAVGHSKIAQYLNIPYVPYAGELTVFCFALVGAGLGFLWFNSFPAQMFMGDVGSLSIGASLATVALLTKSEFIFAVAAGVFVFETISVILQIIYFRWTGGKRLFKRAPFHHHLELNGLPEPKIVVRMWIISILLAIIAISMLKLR

Staphylococcus aureus [3] = assay: Antibacterial activity against methicillin resistant Staphylococcus aureus SR3637; assay type: functional
Enterococcus faecium = assay: Antibacterial activity against Enterococcus faecium SR7917 (VRE); assay type: functional
Enterococcus faecalis [4] = assay: Antibacterial activity against Enterococcus faecalis SR7914 (VRE); assay type: functional
Enterococcus faecalis [5] = assay: Antibacterial activity against Enterococcus faecalis ATCC 29212; assay type: functional
Staphylococcus aureus [6] = assay: Antibacterial activity against methicillin susceptible Staphylococcus aureus ATCC 29213; assay type: functional
[7] = system: Mycobacterium tuberculosis; assay: Antibacterial activity against Mycobacterium tuberculosis H37Rv; assay type: functional
[8] = system: Mycobacterium tuberculosis; assay: Antibacterial activity against Mycobacterium tuberculosis Kurono; assay type: functional
Staphylococcus aureus [9] = assay: Antibacterial activity against methicillin resistant Staphylococcus aureus No. 5; assay type: functional
[10] = system: Mycobacterium avium subsp. paratuberculosis; assay: Antibacterial activity against Mycobacterium avium subsp. paratuberculosis ATCC 43015; assay type: functional
Mycolicibacterium phlei = assay: Antibacterial activity against Mycobacterium phlei; assay type: functional
[11] = system: Mycolicibacterium smegmatis; assay: Antibacterial activity against Mycobacterium smegmatis ATCC 607; assay type: functional
Mycolicibacterium vaccae = assay: Antibacterial activity against Mycobacterium vaccae ATCC 15483; assay type: functional
Streptococcus pneumoniae = assay: Antibacterial activity against Streptococcus pneumoniae PCI 602; assay type: functional
[12] = system: Mycobacterium tuberculosis; assay: Antibacterial activity against Mycobacterium tuberculosis JCM 6384; assay type: functional
[13] = Antibacterial activity against Mycobacterium avium subsp. avium ATCC 25291; assay type: functional
Staphylococcus aureus [14] = assay: Antibacterial activity against Staphylococcus aureus FDA 209P; assay type: functional
Escherichia coli = assay: Antibacterial activity against Escherichia coli expressing MraY; assay type: functional, organism-based

**Q.** For NC[C@H]1O[C@@H](O[C@@H](c2cn(CCc3ccc(-c4ccccc4)cc3)nn2)[C@H]2O[C@@H](n3ccc(=O)[nH]c3=O)[C@H](O)[C@@H]2O)[C@H](O)[C@@H]1O, which IC50 [1] is on record?
**A.** The IC50 was 400 µM.

**Q.** For NC[C@H]1O[C@@H](O[C@@H](Cc2cn(CCCCCCCCCCO)nn2)[C@H]2O[C@@H](n3ccc(=O)[nH]c3=O)[C@H](O)[C@@H]2O)[C@H](O)[C@@H]1O, which IC50 [2] is on record?
**A.** Its IC50 is 40 µM.

**Q.** Which IC50 [2] does the source give for NCCCCCCCCCn1cc(C[C@H](O[C@@H]2O[C@H](CN)[C@@H](O)[C@H]2O)[C@H]2O[C@@H](n3ccc(=O)[nH]c3=O)[C@H](O)[C@@H]2O)nn1 here?
**A.** The IC50 was 200 µM.

**Q.** With CCCCCCCCCCCCCCCC(=O)NC[C@@H]1CC2[C@H](C(=O)N1CCCNC(=N)N)[C@@H]([C@H]1O[C@@H](n3ccc(=O)[nH]c3=O)[C@H](O)[C@@H]1O)ON2CCCN (single isomer, unassigned) as the molecule, how does the MIC (Staphylococcus aureus [3]) read?
**A.** The MIC was 16 mg/L (≈ 20.6 µM).

**Q.** What about the MIC (Enterococcus faecium) of the same molecule?
**A.** The MIC was 8 mg/L (≈ 10.3 µM).

**Q.** What about the MIC (Enterococcus faecalis [4]) of the same molecule?
**A.** Its MIC is 16 mg/L (≈ 20.6 µM).

**Q.** And the MIC (Enterococcus faecalis [5])?
**A.** The MIC was 16 mg/L (≈ 20.6 µM).

**Q.** And the MIC (Staphylococcus aureus [6])?
**A.** The MIC was 16 mg/L (≈ 20.6 µM).

**Q.** For NC[C@H]1O[C@@H](O[C@@H](Cc2cn(CCCCCO)nn2)[C@H]2O[C@@H](n3ccc(=O)[nH]c3=O)[C@H](O)[C@@H]2O)[C@H](O)[C@@H]1O, which IC50 [2] is on record?
**A.** The IC50 was 400 µM.

**Q.** With CCCCCCCCCCCCCCCCNC(=O)C1=CCN(C)[C@@H]([C@H](O[C@@H]2O[C@H](CN)[C@@H](O)[C@H]2O)[C@H]2O[C@@H](n3ccc(=O)[nH]c3=O)[C@H](O)[C@@H]2O)C(=O)N1C as the molecule, how does the MIC [7] read?
**A.** The MIC was 3.13 mg/L (≈ 4.01 µM).

**Q.** And the MIC [8]?
**A.** Its MIC is 3.13 mg/L (≈ 4.01 µM).

**Q.** What about the MIC (Staphylococcus aureus [9]) of the same molecule?
**A.** The MIC was 1.56 mg/L (≈ 2 µM).

**Q.** What about the MIC [10] of the same molecule?
**A.** The MIC was 6.25 mg/L (≈ 8 µM).

**Q.** What about the MIC (Mycolicibacterium phlei) of the same molecule?
**A.** The MIC was > 100 mg/L.

**Q.** And the MIC [11]?
**A.** The MIC was 0.78 mg/L (≈ 0.999 µM).

**Q.** What about the MIC (Mycolicibacterium vaccae) of the same molecule?
**A.** The MIC was > 100 mg/L.

**Q.** And the MIC (Streptococcus pneumoniae)?
**A.** The MIC was 1.56 mg/L (≈ 2 µM).

**Q.** And the MIC [12]?
**A.** The MIC was 3.13 mg/L (≈ 4.01 µM).

**Q.** And the MIC [13]?
**A.** Its MIC is 3.13 mg/L (≈ 4.01 µM).

**Q.** What about the MIC (Staphylococcus aureus [14]) of the same molecule?
**A.** The MIC was 0.78 mg/L (≈ 0.999 µM).

**Q.** Which MIC (Staphylococcus aureus [3]) does the source give for CCCCCCCCCCCCCCCC(=O)NC[C@@H]1CC[C@H]2C(C(=O)N1CCCNC(=N)N)[C@H]([C@H]1O[C@@H](n3ccc(=O)[nH]c3=O)[C@H](O)[C@@H]1O)ON2CCCN (single isomer, unassigned) here?
**A.** Its MIC is 16 mg/L (≈ 20.2 µM).

**Q.** What about the MIC (Enterococcus faecium) of the same molecule?
**A.** The MIC was 16 mg/L (≈ 20.2 µM).

**Q.** And the MIC (Enterococcus faecalis [4])?
**A.** The MIC was 16 mg/L (≈ 20.2 µM).

**Q.** And the MIC (Enterococcus faecalis [5])?
**A.** Its MIC is 16 mg/L (≈ 20.2 µM).

**Q.** And the MIC (Staphylococcus aureus [6])?
**A.** The MIC was > 64 mg/L.

**Q.** Which IC50 [2] does the source give for NCCCCCCCCCc1cn(C[C@H](O[C@@H]2O[C@H](CN)[C@@H](O)[C@H]2O)[C@H]2O[C@@H](n3ccc(=O)[nH]c3=O)[C@H](O)[C@@H]2O)nn1 here?
**A.** Its IC50 is 250 µM.

**Q.** For CCCCCCCCCCCCCCC[C@H](NC(=O)[C@@H](N)CCCNC(=N)N)C(=O)NC[C@@H]1CC2[C@@H](C(=O)N1)[C@H]([C@H]1O[C@@H](n3ccc(=O)[nH]c3=O)[C@H](O)[C@@H]1O)ON2CCCN (single isomer, unassigned), which MIC (Staphylococcus aureus [3]) is on record?
**A.** The MIC was 32 mg/L (≈ 37 µM).

**Q.** What about the MIC (Enterococcus faecium) of the same molecule?
**A.** Its MIC is 16 mg/L (≈ 18.5 µM).

**Q.** What about the MIC (Enterococcus faecalis [4]) of the same molecule?
**A.** Its MIC is 32 mg/L (≈ 37 µM).

**Q.** And the MIC (Enterococcus faecalis [5])?
**A.** The MIC was 16 mg/L (≈ 18.5 µM).

**Q.** What about the MIC (Staphylococcus aureus [6]) of the same molecule?
**A.** The MIC was > 64 mg/L.

**Q.** With NC[C@H]1O[C@@H](O[C@@H](Cn2cc(CCOCCOCCOCCOCCO)nn2)[C@H]2O[C@@H](n3ccc(=O)[nH]c3=O)[C@H](O)[C@@H]2O)[C@H](O)[C@@H]1O as the molecule, how does the IC50 [2] read?
**A.** The IC50 was 450 µM.

**Q.** With NC[C@H]1O[C@@H](O[C@@H](c2cn(CCCCCO)nn2)[C@H]2O[C@@H](n3ccc(=O)[nH]c3=O)[C@H](O)[C@@H]2O)[C@H](O)[C@@H]1O as the molecule, how does the IC50 [1] read?
**A.** Its IC50 is > 1000 µM.

**Q.** With NC[C@H]1O[C@@H](O[C@@H](c2cn(CCCCCCCCCCOc3ccc(C(=O)c4ccccc4)cc3)nn2)[C@H]2O[C@@H](n3ccc(=O)[nH]c3=O)[C@H](O)[C@@H]2O)[C@H](O)[C@@H]1O as the molecule, how does the IC50 [1] read?
**A.** Its IC50 is 125 µM.

**Q.** For NC[C@H]1O[C@@H](O[C@@H](Cn2cc(CCCCCO)nn2)[C@H]2O[C@@H](n3ccc(=O)[nH]c3=O)[C@H](O)[C@@H]2O)[C@H](O)[C@@H]1O, which IC50 [2] is on record?
**A.** Its IC50 is 400 µM.

**Q.** With NC[C@H]1O[C@@H](O[C@@H](Cn2cc(Cc3ccc(COc4ccc(C(=O)c5ccccc5)cc4)cc3)nn2)[C@H]2O[C@@H](n3ccc(=O)[nH]c3=O)[C@H](O)[C@@H]2O)[C@H](O)[C@@H]1O as the molecule, how does the IC50 [2] read?
**A.** Its IC50 is 100 µM.

**Q.** For NC[C@H]1O[C@@H](OC[C@@H]2C[C@@H](O)[C@H](n3ccc(=O)[nH]c3=O)O2)[C@H](O)[C@@H]1O, which IC50 (Escherichia coli) is on record?
**A.** The IC50 was 10 µM.

**Q.** With C[N+](C)(C)C[C@H]1O[C@@H](OC[C@H]2O[C@@H](n3ccc(=O)[nH]c3=O)[C@H](O)[C@@H]2O)[C@H](O)[C@@H]1O as the molecule, how does the IC50 (Escherichia coli) read?
**A.** Its IC50 is > 1000 µM.

**Q.** With CCCCCCCCCCCCCCC[C@H](NC(=O)[C@@H](N)CCCNC(=N)N)C(=O)NC[C@@H]1CC[C@H]2C(C(=O)N1)[C@H]([C@H]1O[C@@H](n3ccc(=O)[nH]c3=O)[C@H](O)[C@@H]1O)ON2CCCN (single isomer, unassigned) as the molecule, how does the MIC (Staphylococcus aureus [3]) read?
**A.** The MIC was 32 mg/L (≈ 36.4 µM).

**Q.** And the MIC (Enterococcus faecium)?
**A.** The MIC was 8 mg/L (≈ 9.11 µM).

**Q.** What about the MIC (Enterococcus faecalis [4]) of the same molecule?
**A.** Its MIC is 16 mg/L (≈ 18.2 µM).

**Q.** And the MIC (Enterococcus faecalis [5])?
**A.** Its MIC is 16 mg/L (≈ 18.2 µM).

**Q.** And the MIC (Staphylococcus aureus [6])?
**A.** Its MIC is 16 mg/L (≈ 18.2 µM).
